US10933113B2, “Use of a compound, pharmaceutical composition, and therapeutic method for the treatment or prevention of convulsions” (PROTEIMAX BIO[…]A, priority 2016, dated 2021)

System: pilocarpine model
Test: pilocarpine model, oral test compound 10 minutes before intraperitoneal pilocarpine
Format: in vivo, Mus musculus or mouse
Protocol: In some instances, the anticonvulsive effects of the composition of the invention have been evaluated in vivo upon oral administration to animals. The pharmaceutical composition of the invention was administered to mammals (Mus musculus or mouse) with oral dose of treatment, as compared to other compounds or to saline control. In these experiments, the test compounds were administered orally 10 minutes prior to the (intraperitoneal) administration of pilocarpine. Pilocarpine hydrochloride (320 mg/kg, Merck), dissolved in 0.9% sterile saline, was given intraperitoneally for induction of SE (status epileticus) (Turski et al., 1983). In the Turski model, the neurotoxic effects begin about 15-25 minutes after the injection of Pilo, with the occurrence of motor and limbic seizures, the animals evolving to a state of continuous (clonic) seizures that characterize SE Sanabria and Cavalheiro, 2000).
In this embodiment, the anticonvulsant effect of the composition of the invention prepared according to example 1 was evaluated by prior administration of the inventive composition and subsequent administration of pilocarpine to animals. Administration of pilocarpine leads to severe brain damage, neurotoxicity, and usually culminates in the death of animals.
The composition of the invention prepared according to Example 1 was pre-administered to the animals.

[1] = 1000 μg/kg oral, group n=5, pilocarpine 320 mg/kg i.p.

CC(C)C[C@H](NC(=O)[C@H](Cc1ccccc1)NC(=O)[C@H](CCCCN)NC(=O)[C@H](Cc1ccccc1)NC(=O)[C@H](CC(N)=O)NC(=O)[C@@H](NC(=O)[C@@H]1CCCN1)C(C)C)C(=O)N[C@@H](CO)C(=O)N[C@@H](Cc1cnc[nH]1)C(=O)O [Hp, PVNFKFLSH]
survival time compared with control (FIG. 1) (600 μg/kg oral): not statistically significant
number of animals that died in the group [1]: one
remaining animals that remained alive for more than a week [1]: 4
mean survival time for the group (1000 μg/kg oral, versus control, Hp 600 μg/kg, DIIADDEPLT 1000 μg/kg): significantly different and higher than the others
occurrence of typical side effects of other anticonvulsants, such as prostration and nasal bleeding (oral administration, mice): has not been observed
brain injury related symptoms and survival after pilocarpine (prior oral administration of the composition of Example 1): the vast majority of the animals subjected to these experiments had no brain injury related symptoms and survived without apparent damage
time for the occurrence of the first salivation (FIG. 4) (prior oral administration, pilocarpine-induced salivation): substantial change in the time profile for the occurrence of the first salivation
time for the occurrence of the first seizure (FIG. 6), P vs Control, Hp 600 μg/kg, Pep19 1000 μg/kg (starred group, by exclusion Hp 1000 μg/kg oral): < 0.001

DIIADDEPLT [peptide used as another control, reference compound]
survival time compared with control (FIG. 1) (1000 μg/kg oral): not statistically significant
